Results from patent US20230340011A1 (Asteroid Therapeutics, priority 2022, published 2023).

Legend:
LXRβ = LXRβ (Homo sapiens (Human), UniProt P55055); test: In vitro assay LXRβ: PathHunter NHR CHO cells, LXRβ / Steroid Receptor Co-activator Peptide enzyme fragment complementation; type: cell-based; conditions: PathHunter NHR CHO cells, full-length human LXRβ and SRCP, chemiluminescent signal; read-out: LXRβ PPI
Outline: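 Co-activator recruitment measured by chemiluminescence after signal generation. The CHO line carries full-length human LXRβ tagged with ProLink and an SRCP–enzyme acceptor fusion in the nucleus; cells sat overnight at 37° C before testing, in charcoal-dextran filtered serum medium with 1% final vehicle.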

SREBP-2 = SREBP-2 (Homo sapiens (Human), UniProt Q12772); test: In vitro assay SREBP-2: PathHunter U2OS SREBP-2 Nuclear Translocation Cell Line, U18666A-stimulated; type: cell-based; conditions: PathHunter U2OS SREBP-2 nuclear translocation cells, U18666A 10 μM, overnight (16 hours)

Sequence of LXRβ (P55055 whole entry, the tested form may be a part): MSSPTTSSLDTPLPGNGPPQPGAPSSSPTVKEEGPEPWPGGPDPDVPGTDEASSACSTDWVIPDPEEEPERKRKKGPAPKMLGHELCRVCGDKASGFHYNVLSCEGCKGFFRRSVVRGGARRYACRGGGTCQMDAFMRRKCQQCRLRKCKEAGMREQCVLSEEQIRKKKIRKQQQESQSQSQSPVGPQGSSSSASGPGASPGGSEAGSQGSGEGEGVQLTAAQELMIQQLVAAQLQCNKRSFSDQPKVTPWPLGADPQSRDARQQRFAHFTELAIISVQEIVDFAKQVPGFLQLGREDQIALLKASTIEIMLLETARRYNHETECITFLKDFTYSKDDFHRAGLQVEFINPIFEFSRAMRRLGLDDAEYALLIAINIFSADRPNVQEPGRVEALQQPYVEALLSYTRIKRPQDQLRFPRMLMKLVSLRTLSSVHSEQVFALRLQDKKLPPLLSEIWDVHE

| Structure (SMILES) | EC50 (LXRβ) [nM] | IC50 (SREBP-2) [nM] |
| --- | --- | --- |
| COC(=O)N1CCN(C(=S)CC[C@@H](C)[C@H]2CC[C@H]3[C@@H]4CC=C5C[C@@H](O)CC[C@]5(C)[C@H]4CC[C@]23C)CC1 [Example 550, methyl4-[(4R)-4-[(1R,3aS,3bS,7S,9aR,9bS,11aR)-7-hydroxy-9a,11a-dimethyl-1H,2H,3H,3aH,3bH,4H,6H,7H,8H,9H,9aH,9bH,10H,11H,11aH-cyclopenta[a]phenanthren-1-yl]pentanethioyl]piperazine-1-carboxylate] | > 10000 | < 250 |
| C[C@H](CCC(=O)N1CCC(O)(C2CC2)CC1)[C@H]1CC[C@H]2[C@@H]3CC=C4C[C@@H](O)CC[C@]4(C)[C@H]3CC[C@]12C [Example 193, (R)-1-(4-cyclopropyl-4-hydroxypiperidin-1-yl)-4-((3S,8S,9S,10R,13R,14S,17R)-3-hydroxy-10,13-dimethyl-2,3,4,7,8,9,10,11,12,13,14,15,16,17-tetradecahydro-1H-cyclopenta[a]phenanthren-17-yl)pentan-1-one] | < 250 | < 250 |
| CCC1(O)CCN(C(=O)CC[C@@H](C)[C@H]2CC[C@H]3[C@@H]4CC=C5C[C@@H](O)C[C@H](O)[C@]5(C)[C@H]4CC[C@]23C)CC1 [Example 156, (R)-4-((1S,3R,8S,9S,10R,13R,14S,17R)-1,3-dihydroxy-10,13-dimethyl-2,3,4,7,8,9,10,11,12,13,14,15,16,17-tetradecahydro-1H-cyclopenta[a]phenanthren-17-yl)-1-(4-ethyl-4-hydroxypiperidin-1-yl)pentan-1-one] | < 250 | > 10000 |
| Cc1cncnc1N1CCN(C(=O)CC[C@@H](C)[C@H]2CC[C@H]3[C@@H]4CC=C5C[C@@H](O)CC[C@]5(C)[C@H]4CC[C@]23C)CC1 [Example 508, (R)-4-((3S,8S,9S,10R,13R,14S,17R)-3-hydroxy-10,13-dimethyl-2,3,4,7,8,9,10,11,12,13,14,15,16,17-tetradecahydro-1H-cyclopenta[a]phenanthren-17-yl)-1-(4-(5-methylpyrimidin-4-yl)piperazin-1-yl)pentan-1-one] | > 10000 | < 250 |
| C[C@H](CCc1cnsc1)[C@H]1CC[C@H]2[C@@H]3CC=C4C[C@@H](O)CC[C@]4(C)[C@H]3CC[C@]12C [Example 176, (3S,8S,9S,10R,13R,14S,17R)-17-((R)-4-(isothiazol-4-yl)butan-2-yl)-10,13-dimethyl-2,3,4,7,8,9,10,11,12,13,14,15,16,17-tetradecahydro-1H-cyclopenta[a]phenanthren-3-ol] | > 10000 | 250 to 1000 |
| C[C@H](CCC(=O)N1CCC(CNC(=O)C(C)(C)O)CC1)[C@H]1CC[C@H]2[C@@H]3CC=C4C[C@@H](O)CC[C@]4(C)[C@H]3CC[C@]12C [Example 228, 2-hydroxy-N-((1-((R)-4-((3S,8S,9S,10R,13R,14S,17R)-3-hydroxy-10,13-dimethyl-2,3,4,7,8,9,10,11,12,13,14,15,16,17-tetradecahydro-1H-cyclopenta[a]phenanthren-17-yl)pentanoyl)piperidin-4-yl)methyl)-2-methylpropanamide] | > 10000 | < 250 |
| C[C@H](CCC(=O)N1CCC[C@@](C)(O)C1)[C@H]1CC[C@H]2[C@@H]3CC=C4C[C@@H](O)CC[C@]4(C)[C@H]3CC[C@]12C [Example 105, (R)-4-((3S,8S,9S,10R,13R,14S,17R)-3-hydroxy-10,13-dimethyl-2,3,4,7,8,9,10,11,12,13,14,15,16,17-tetradecahydro-1H-cyclopenta[a]phenanthren-17-yl)-1-((R)-3-hydroxy-3-methylpiperidin-1-yl) pentan-1-one] | 1000 to 10000 | < 250 |
| C[C@H](CCC(=O)N1CCN(c2ccnnc2)CC1)[C@H]1CC[C@H]2[C@@H]3CC=C4C[C@@H](O)CC[C@]4(C)[C@H]3CC[C@]12C [Example 487, (R)-4-((3S,8S,9S,10R,13R,14S,17R)-3-hydroxy-10,13-dimethyl-2,3,4,7,8,9,10,11,12,13,14,15,16,17-tetradecahydro-1H-cyclopenta[a]phenanthren-17-yl)-1-(4-(pyridazin-4-yl)piperazin-1-yl)pentan-1-one] | > 10000 | < 250 |
| C[C@H](CCC(=O)N1CC[C@H](Oc2ccncc2)[C@@H](C)C1)[C@H]1CC[C@H]2[C@@H]3CC=C4C[C@@H](O)CC[C@]4(C)[C@H]3CC[C@]12C [Example 571, (R)-4-((3S,8S,9S,10R,13R,14S,17R)-3-hydroxy-10,13-dimethyl-2,3,4,7,8,9,10,11,12,13,14,15,16,17-tetradecahydro-1H-cyclopenta[a]phenanthren-17-yl)-1-((3S,4S)-3-methyl-4-(pyridin-4-yloxy)piperidin-1-yl)pentan-1-one] | > 10000 | < 250 |
| COC(=O)N1CCN(C(=O)CC[C@@H](C)[C@H]2CC[C@H]3[C@@H]4CC=C5C[C@@H](O)CC[C@]5(C)[C@H]4CC[C@]23C)CC1 [Example 360, methyl 4-((R)-4-((3S,8S,9S,10R,13R,14S,17R)-3-hydroxy-10,13-dimethyl-2,3,4,7,8,9,10,11,12,13,14,15,16,17-tetradecahydro-1H-cyclopenta[a]phenanthren-17-yl)pentanoyl)piperazine-1-carboxylate] | > 10000 | < 250 |
| C[C@H](CCC(=O)N1CCN(c2ccnn2C)C[C@@H]1C)[C@H]1CC[C@H]2[C@@H]3CC=C4C[C@@H](O)CC[C@]4(C)[C@H]3CC[C@]12C [Example 609, (R)-4-((3S,8S,9S,10R,13R,14S,17R)-3-hydroxy-10,13-dimethyl-2,3,4,7,8,9,10,11,12,13,14,15,16,17-tetradecahydro-1H-cyclopenta[a]phenanthren-17-yl)-1-((S)-2-methyl-4-(1-methyl-1H-pyrazol-5-yl)piperazin-1-yl)pentan-1-one] | > 10000 | < 250 |
| Cc1cnc(CC[C@@H](C)[C@H]2CC[C@H]3[C@@H]4CC=C5C[C@@H](O)CC[C@]5(C)[C@H]4CC[C@]23C)nc1 [Example 192, (3S,8S,9S,10R,13R,14S,17R)-10,13-dimethyl-17-((R)-4-(5-methylpyrimidin-2-yl)butan-2-yl)-2,3,4,7,8,9,10,11,12,13,14,15,16,17-tetradecahydro-1H-cyclopenta[a]phenanthren-3-ol] | > 10000 | < 250 |
| COc1cc(N2CCN(C(=O)CC[C@@H](C)[C@H]3CC[C@H]4[C@@H]5CC=C6C[C@@H](O)CC[C@]6(C)[C@H]5CC[C@]34C)C[C@@H]2C)ncn1 [Example 646, (R)-4-((3S,8S,9S,10R,13R,14S,17R)-3-hydroxy-10,13-dimethyl-2,3,4,7,8,9,10,11,12,13,14,15,16,17-tetradecahydro-1H-cyclopenta[a]phenanthren-17-yl)-1-((S)-4-(6-methoxypyrimidin-4-yl)-3-methylpiperazin-1-yl)pentan-1-one] | > 10000 | < 250 |
| C[C@@H](NC(=O)C(=O)N(C)C)[C@H]1CC[C@H]2[C@@H]3CC=C4C[C@@H](O)CC[C@]4(C)[C@H]3CC[C@]12C (single isomer, unassigned) [Example 118] | > 10000 | > 10000 |
